This is an account of results in EPA's aquatic toxicity sets.

The test system of the series is Pimephales promelas. The series is described as follows: 96 h LC50 (-log10 mol/L); higher = more toxic.
On to `O=S(=O)([O-])c1ccc[n+](Cc2ccccc2)c1`, for which the “96 h LC50 (-log10 mol/L)” value is 2.02.

As to `CC(C)=CC1C(C(=O)OCc2ccc(C)cc2C)C1(C)C` (stereo unspecified), the “96 h LC50 (-log10 mol/L)” value was determined as 6.67.

Take `CC1=CCC(=C(C)C)CC1`: the “96 h LC50 (-log10 mol/L)” value came out at 5.05.

As for `CC(C)=CCC/C(C)=C/CN(C/C=C(\C)CCC=C(C)C)CCO`, the “96 h LC50 (-log10 mol/L)” value was 6.41.

On to `ClC1=C(Cl)[C@]2(Cl)[C@H]3[C@H]([C@@H]4C=C[C@H]3C4)[C@@]1(Cl)C2(Cl)Cl`, for which the “96 h LC50 (-log10 mol/L)” value amounted to 7.09.

Turning to `CCCCCCCCCCCCCN`, the “96 h LC50 (-log10 mol/L)” value was determined as 6.48.

Take `CCOP(=O)(OCC)OP(=O)(OCC)OCC`: the “96 h LC50 (-log10 mol/L)” value was 5.35.

For `O=C1C2CC3CC(C2)CC1C3`, the “96 h LC50 (-log10 mol/L)” value was 3.39.

Turning to `O=S1OCC2C(CO1)C1(Cl)C(Cl)=C(Cl)C2(Cl)C1(Cl)Cl` (stereo unspecified), the “96 h LC50 (-log10 mol/L)” value came to 8.48.

In the case of `CCOP(=S)(OCC)Oc1ccc(S(C)=O)cc1` (stereo unspecified), the “96 h LC50 (-log10 mol/L)” value worked out at 3.85.

For `CCN(CC)N=O`, the “96 h LC50 (-log10 mol/L)” value came out at 2.12.

Turning to `ClC1(Cl)C2(Cl)C3(Cl)C4(Cl)C(Cl)(Cl)C5(Cl)C3(Cl)C1(Cl)C5(Cl)C24Cl` (stereo unspecified), the “96 h LC50 (-log10 mol/L)” value was 3.62.

For the compound `CCCCCCCC/C=C\CCCCCCCC(=O)O`, the “96 h LC50 (-log10 mol/L)” value was 3.14.

With `CCC(C)C=O` (stereo unspecified), the “96 h LC50 (-log10 mol/L)” value amounted to 3.94.

On to `CCNCCO`, for which the “96 h LC50 (-log10 mol/L)” value is 1.78.

As to `C1OCOCO1`, the “96 h LC50 (-log10 mol/L)” value turned out to be 1.18.

As to `CCOC(=O)C(C)N(C(=O)c1ccccc1)c1ccc(Cl)c(Cl)c1` (stereo unspecified), the “96 h LC50 (-log10 mol/L)” value amounted to 5.81.

As for `O=C(O)C(Br)Br`, the “96 h LC50 (-log10 mol/L)” value turned out to be 3.5.

Consider `C=C1[C@H]2CC[C@@H]3[C@H]2C(C)(C)CCC[C@]13C`, for which the “96 h LC50 (-log10 mol/L)” value stood at 4.3.

As for `C1CN2CCN1CC2`, the “96 h LC50 (-log10 mol/L)” value is 1.81.

Turning to `C=CC(C)(O)CC/C=C(\C)CCC=C(C)C` (stereo unspecified), the “96 h LC50 (-log10 mol/L)” value was found to be 5.19.

`Cc1c([N+](=O)[O-])cc(N)cc1[N+](=O)[O-]`: the “96 h LC50 (-log10 mol/L)” value amounted to 4.46.

For `COP(O)(=S)OC`, the “96 h LC50 (-log10 mol/L)” value is 3.52.

`Cc1c(Cl)cc(C(C)(C)C)c(O)c1C(=O)Nc1ccc([N+](=O)[O-])cc1Cl`: the “96 h LC50 (-log10 mol/L)” value turned out to be 7.69.

As to `CCCCCCCCCCCCN`, the “96 h LC50 (-log10 mol/L)” value came to 6.25.

`OC(c1ccc(Cl)cc1)(c1ccc(Cl)cc1)C(Cl)(Cl)Cl`: the “96 h LC50 (-log10 mol/L)” value was found to be 5.86.

In the case of `CCSCCCCSCC`, the “96 h LC50 (-log10 mol/L)” value amounted to 4.47.

Turning to `ClCCOCOCCCl`, the “96 h LC50 (-log10 mol/L)” value worked out at 2.97.

Take `CCC(C)n1c(=O)[nH]c(C)c(Br)c1=O` (stereo unspecified): the “96 h LC50 (-log10 mol/L)” value is 3.15.

For the compound `CCCSCCC`, the “96 h LC50 (-log10 mol/L)” value is 3.74.

Turning to `C1CCOC1`, the “96 h LC50 (-log10 mol/L)” value was determined as 1.52.

For `O=Cc1cccc(Oc2ccc(Cl)c(Cl)c2)c1`, the “96 h LC50 (-log10 mol/L)” value is 5.95.

For `Brc1ccccc1Br`, the “96 h LC50 (-log10 mol/L)” value came out at 4.76.

In the case of `CCCCCCCCCCc1ccc(N)cc1`, the “96 h LC50 (-log10 mol/L)” value is 6.57.

As to `COc1cccc(OC)c1C`, the “96 h LC50 (-log10 mol/L)” value was found to be 3.88.

Turning to `CC(C)C(C(=O)OC(C#N)c1cccc(Oc2ccccc2)c1)c1ccc(OC(F)F)cc1` (stereo unspecified), the “96 h LC50 (-log10 mol/L)” value came out at 8.98.

For `ClC1=C(Cl)[C@]2(Cl)C3C(Cl)C(Cl)CC3[C@@]1(Cl)C2(Cl)Cl` (stereo partly specified), the “96 h LC50 (-log10 mol/L)” value worked out at 6.82.

For the compound `S=c1[nH]c2cc(Cl)ccc2s1`, the “96 h LC50 (-log10 mol/L)” value worked out at 4.8.

For the compound `CC(Oc1cc(Cl)c(Cl)cc1Cl)C(=O)O` (stereo unspecified), the “96 h LC50 (-log10 mol/L)” value came to 4.2.

For the compound `C#CC1(O)CCCCC1`, the “96 h LC50 (-log10 mol/L)” value stood at 2.69.

Turning to `C=CCNc1ccccc1`, the “96 h LC50 (-log10 mol/L)” value was found to be 3.57.

Regarding `CC(C)(C)CC(C)(C)N`, the “96 h LC50 (-log10 mol/L)” value came out at 3.72.

On to `OC1COC(O)C(O)C1O` (stereo unspecified), for which the “96 h LC50 (-log10 mol/L)” value is 0.6.

As to `Brc1ccccc1`, the “96 h LC50 (-log10 mol/L)” value came to 4.45.

For `COP(=S)(OC)Oc1ccc(Sc2ccc(OP(=S)(OC)OC)cc2)cc1`, the “96 h LC50 (-log10 mol/L)” value was 4.14.

In the case of `COP(=O)(OC)Oc1nc(Cl)c(Cl)cc1Cl`, the “96 h LC50 (-log10 mol/L)” value worked out at 8.16.

Consider `C=CC(=C)C`, for which the “96 h LC50 (-log10 mol/L)” value is 2.95.

For the compound `ClCc1ccc(CCl)cc1`, the “96 h LC50 (-log10 mol/L)” value was found to be 6.65.

Take `Cc1nnc(N)nc1C`: the “96 h LC50 (-log10 mol/L)” value was found to be 2.12.

For `CC(C)CCCCCOC(=O)C(C)Oc1cc(Cl)c(Cl)cc1Cl` (stereo unspecified), the “96 h LC50 (-log10 mol/L)” value came to 4.24.

Turning to `CC(C)OC(C)C`, the “96 h LC50 (-log10 mol/L)” value stood at 2.11.

In the case of `CCC(C)C(C)C=O` (stereo unspecified), the “96 h LC50 (-log10 mol/L)” value came out at 3.85.

On to `CCNS(=O)(=O)C(F)(F)C(F)(F)C(F)(F)C(F)(F)C(F)(F)C(F)(F)C(F)(F)C(F)(F)F`, for which the “96 h LC50 (-log10 mol/L)” value came to 6.45.

Turning to `ClCCCCCCl`, the “96 h LC50 (-log10 mol/L)” value came out at 3.75.

`Cl[C@@H]1CCCC[C@H]1Cl`: the “96 h LC50 (-log10 mol/L)” value turned out to be 3.92.

For `c1ccc(SSc2ccccc2)cc1`, the “96 h LC50 (-log10 mol/L)” value is 6.3.

For `CCC1(CCC(C)C)C(=O)NC(=O)NC1=O`, the “96 h LC50 (-log10 mol/L)” value was determined as 3.42.

As to `CCOC(N)=O`, the “96 h LC50 (-log10 mol/L)” value worked out at 1.23.

As for `CCNc1nc(NC(C)C)nc(SC)n1`, the “96 h LC50 (-log10 mol/L)” value was 4.38.

`C1N2CN3CN1CN(C2)C3`: the “96 h LC50 (-log10 mol/L)” value came to 0.449.

Regarding `Cc1cc(Cl)ccc1OCCCC(=O)O`, the “96 h LC50 (-log10 mol/L)” value stood at 4.26.
